The text below walks through data of US10793591B2, “Substituted nucleosides, nucleotides and analogs thereof” (priority 2012, dated 2020).

Each structure is given as a SMILES string. Some results are limits rather than exact numbers.

The first series has as its system mitochondrial protein synthesis (COX-I relative to SDH-A) in HepG2 cells.
Experiment: not given
Conditions: not given
Regarding `Nc1ccn([C@H]2CC[C@@H](CO)O2)c(=O)n1` [ddC], the “inhibition of mitochondrial protein synthesis” value (“inhibition” for short) is recorded as “strongly inhibit mitochondrial protein synthesis”.

For `Cc1cn([C@H]2C=C[C@@H](CO)O2)c(=O)[nH]c1=O` [d4T], the “inhibition” value is “not to inhibit mitochondrial protein synthesis at concentrations up to 100 μM”.

`COc1nc(N)nc2c1ncn2[C@@H]1O[C@H](COP(=O)(N[C@@H](C)C(=O)OCC(C)(C)C)Oc2cccc3ccccc23)[C@@H](O)[C@@]1(C)O` (stereo partly shown) [INX-08189/BMS-986094]: the “inhibition” value is listed as “strongly inhibit mitochondrial protein synthesis”.

In another series the test system is Huh-7 cells containing the self-replicating, subgenomic HCV replicon. In words: HCV replicon assay (luciferase reporter). The format is cell-based. As to conditions: Hepatitis C virus, Huh-7, 72 h. For orientation: In antiviral work, replicon cells carry a viral genome segment that copies itself.
As for `CCOc1nc(N)nc2c1ncn2[C@@H]1O[C@](F)(COP(=O)(N[C@@H](C)C(=O)OC(CC)CC)Oc2ccccc2)[C@@H](O)[C@@]1(C)F` (stereo partly shown) [Compound 88], the EC50 is less than 1 µM.

In the case of `CC(N[P@@](=O)(OC[C@@]1(F)O[C@@H](n2ccc(=O)[nH]c2=O)[C@](C)(O)[C@@H]1O)Oc1ccccc1)C(=O)OC1CCCCC1` (stereo partly shown) [Compound 21], the EC50 is less than 1 µM.

As for `CC(C)OC(=O)[C@H](C)NP(=O)(N[C@@H](C)C(=O)OC(C)C)OC[C@@]1(F)O[C@@H](n2ccc(=O)[nH]c2=O)[C@](C)(O)[C@@H]1O` [Compound 70], the EC50 fell in the range of 1 to 10 µM.

For the compound `CCOc1nc(N)nc2c1ncn2[C@@H]1O[C@](F)(COP(=O)(N[C@@H](C)C(=O)OC2CCCCC2)Oc2ccccc2)[C@@H](O)[C@@]1(C)F` (stereo partly shown) [Compound 66], the EC50 was less than 1 µM.

In turn, `CC(C)OC(=O)C(C)N[P@@](=O)(OC[C@@]1(F)O[C@@H](n2ccc(=O)[nH]c2=O)[C@](C)(O)[C@@H]1O)Oc1ccccc1` (stereo partly shown) [Compound 19] yielded an EC50 of less than 1 µM.

`CC(C)OC(=O)[C@H](C)NP(=O)(OC[C@@]1(F)O[C@@H](n2ccc(=O)[nH]c2=O)[C@](C)(O)[C@@H]1O)Oc1ccc(Cl)cc1` (stereo partly shown) [Compound 56] registered an EC50 of less than 1 µM.

As for `CC(C)OC(=O)C(C)N[P@](=O)(OC[C@@]1(F)O[C@@H](n2ccc(=O)[nH]c2=O)[C@](C)(O)[C@@H]1O)Oc1ccccc1` (stereo partly shown) [Compound 18], the EC50 was less than 1 µM.

With `CCOc1nc(N)nc2c1ncn2[C@@H]1O[C@](F)(COP(=O)(N[C@@H](C)C(=O)OCC(C)(C)C)Oc2ccccc2)[C@@H](O)[C@@]1(C)O` (stereo partly shown) [Compound 17], the EC50 is less than 1 µM.

Regarding `CCOc1nc(N)nc2c1ncn2C1O[C@](F)(COP(=O)(N[C@@H](C)C(=O)OC(C)C)Oc2ccccc2)[C@@H](O)[C@@]1(C)F` (stereo partly shown) [Compound 85], the EC50 was less than 1 µM.

The compound `CCOC(=O)[C@H](C)NP(=O)(N[C@@H](C)C(=O)OCC)OC[C@@]1(F)O[C@@H](n2ccc(=O)[nH]c2=O)[C@](C)(O)[C@@H]1O` [Compound 67] yielded an EC50 of 1 to 10 µM.

With `CC(=O)O[C@H]1[C@@](C)(O)[C@H](n2ccc(=O)[nH]c2=O)O[C@]1(F)COP(=O)(N[C@@H](C)C(=O)OC(C)C)Oc1ccc(Cl)cc1` (stereo partly shown) [Compound 57], the EC50 was less than 1 µM.

On to `C#C[C@]1(O)[C@H](n2ccc(=O)[nH]c2=O)O[C@](F)(COP(=O)(N[C@@H](C)C(=O)OC2CCCCC2)Oc2ccccc2)[C@H]1O` (stereo partly shown) [Compound 22], for which the EC50 was less than 1 µM.

`CCOc1nc(N)nc2c1ncn2[C@@H]1O[C@](F)(COP(=O)(N[C@@H](C)C(=O)OC2CCCCC2)Oc2ccccc2)[C@@H](O)[C@@]1(C)O` (stereo partly shown) [Compound 16]: the EC50 was less than 1 µM.

In turn, `C=C[C@]1(O)[C@H](n2ccc(=O)[nH]c2=O)O[C@](F)(COP(=O)(N[C@@H](C)C(=O)OC(C)C)Oc2ccccc2)[C@H]1O` (stereo partly shown) [Compound 77] registered an EC50 of 1 to 10 µM.

As to `CCOc1nc(N)nc2c1ncn2C1O[C@](F)(COP(=O)(N[C@@H](C)C(=O)OCC(C)C)Oc2ccccc2)[C@@H](O)[C@@]1(C)F` (stereo partly shown) [Compound 86], the EC50 was less than 1 µM.

In turn, `CCOc1nc(N)nc2c1ncn2[C@@H]1O[C@](F)(COP(=O)(N[C@@H](C)C(=O)OCC(C)(C)C)Oc2ccccc2)[C@@H](O)[C@@]1(C)F` (stereo partly shown) [Compound 91] yielded an EC50 of less than 1 µM.

Turning to `CC(C)OC(=O)[C@H](C)NP(=O)(OC[C@@]1(F)O[C@@H](n2ccc(=O)[nH]c2=O)[C@](C)(O)[C@@H]1O)Oc1cccc2ccccc12` (stereo partly shown) [Compound 54], the EC50 is less than 1 µM.

`CCOc1nc(N)nc2c1ncn2C1O[C@](F)(COP(=O)(N[C@@H](C)C(=O)OC(C)C)Oc2cccc3ccccc23)[C@@H](O)[C@@]1(C)F` (stereo partly shown) [Compound 83] showed an EC50 of less than 1 µM.

Turning to `CC(C)OC(=O)[C@H](C)NP(=O)(OC[C@@]1(F)O[C@@H](n2ccc(=O)[nH]c2=O)[C@](C)(Cl)[C@@H]1O)Oc1ccccc1` (stereo partly shown) [Compound 62], the EC50 is less than 1 µM.

As to `C[C@H](NP(=O)(OC[C@@]1(F)O[C@@H](n2cnc3c(=O)[nH]c(N)nc32)[C@](C)(O)[C@@H]1O)Oc1ccccc1)C(=O)OC1CCCCC1` (stereo partly shown) [Compound 11], the EC50 is less than 1 µM.

Consider `CC(N[P@](=O)(OC[C@@]1(F)O[C@@H](n2ccc(=O)[nH]c2=O)[C@](C)(O)[C@@H]1O)Oc1ccccc1)C(=O)OC1CCCCC1` (stereo partly shown) [Compound 20], for which the EC50 is less than 1 µM.

`CCOc1nc(N)nc2c1ncn2[C@@H]1O[C@](F)(COP(=O)(N[C@@H](C)C(=O)OCC(C)(C)C)Oc2cccc3ncccc23)[C@@H](O)[C@@]1(C)F` (stereo partly shown) [Compound 89] displayed an EC50 of less than 1 µM.

In turn, `CCOc1nc(N)nc2c1ncn2[C@@H]1O[C@]2(F)COP(=O)(OCC)O[C@H]2[C@@]1(C)F` (stereo partly shown) [Compound 79] had an EC50 of less than 1 µM.

For the compound `C=C=C[C@]1(O)[C@H](n2ccc(=O)[nH]c2=O)O[C@](F)(CO[P@@](=O)(N[C@@H](C)C(=O)OC(C)C)Oc2ccccc2)[C@H]1O` [Compound 73], the concentration for a half-maximal effect (EC50) fell in the range of 1 to 10 µM.

The compound `CCOc1nc(N)nc2c1ncn2[C@@H]1O[C@]2(F)COP(=O)(OCC(C)C)O[C@H]2[C@@]1(C)F` (stereo partly shown) [Compound 80] had an EC50 of 1 to 10 µM.

In turn, `CCOc1nc(N)nc2c1ncn2[C@@H]1O[C@](F)(COP(=O)(N[C@@H](C)C(=O)OC2CCCC2)Oc2ccccc2)[C@@H](O)[C@@]1(C)F` (stereo partly shown) [Compound 87] returned an EC50 of less than 1 µM.

In turn, `CCOc1nc(N)nc2c1ncn2[C@@H]1O[C@]2(F)COP(=O)(OC(C)C)O[C@H]2[C@@]1(C)F` (stereo partly shown) [Compound 81] showed an EC50 of less than 1 µM.

In turn, `CCOc1nc(N)nc2c1ncn2[C@@H]1O[C@](F)(COP(=O)(N[C@@H](C)C(=O)OCC(C)(C)C)Oc2cccc3ccccc23)[C@@H](O)[C@@]1(C)F` (stereo partly shown) [Compound 90] had an EC50 of less than 1 µM.

`C[C@H](NP(=O)(OC[C@@]1(F)O[C@@H](n2ccc(=O)[nH]c2=O)[C@](C)(O)[C@@H]1O)Oc1ccccc1)C(=O)OC1CCCCC1` (stereo partly shown) [Compound 3] yielded an EC50 of less than 1 µM.

The compound `CC(C)OC(=O)[C@H](C)NP(=O)(OC[C@@]1(F)O[C@@H](n2ccc(=O)[nH]c2=O)[C@](C)(O)[C@@H]1O)Oc1ccccc1` (stereo partly shown) [Compound 2] displayed an EC50 of less than 1 µM.

In turn, `CC(C)(C)C(=O)SCCCCOP(=O)(OCCCCSC(=O)C(C)(C)C)OC[C@@]1(F)O[C@@H](n2ccc(=O)[nH]c2=O)[C@](C)(O)[C@@H]1O` [Compound 60] gave an EC50 of 10 to 100 µM.

Still in this series, the particulars now being: Hepatitis C virus, Huh-7; HCV replicon cells, 72 h, Bright-Glo luciferase; read-out: EC50.
Regarding `CC(C)OC(=O)OCOP(=O)(OCOC(=O)OC(C)C)OC[C@@]1(F)O[C@@H](n2ccc(=O)[nH]c2=O)[C@](C)(F)[C@@H]1O` [Compound 61], the EC50 was less than 1 µM.

Regarding `CCOc1nc(N)nc2c1ncn2[C@@H]1O[C@]2(F)CO[P@](=O)(OC(C)C)O[C@H]2[C@@]1(C)F` [Compound 42], the EC50 is less than 1 µM.

Staying with this series, now noted: read-out: EC50.
`C#C[C@]1(O)[C@H](n2cnc3c(OCC)nc(N)nc32)O[C@](F)(CO[P@@](=O)(N[C@@H](C)C(=O)OC2CCCCC2)Oc2ccccc2)[C@H]1O` [Compound 35]: the EC50 was less than 1 µM.

In the case of `C#C[C@]1(O)[C@H](n2cnc3c(OCC)nc(N)nc32)O[C@](F)(CO[P@](=O)(N[C@@H](C)C(=O)OC2CCCCC2)Oc2ccccc2)[C@H]1O` [Compound 34], the EC50 was less than 1 µM.

In a further series the test system is HCV genotype 1b HCV replicon harbored in Huh7 cells. As to the kind of experiment: Combination testing in HCV replicon (MacSynergy II). Conditions: combination with compound 18, 72 h, MacSynergy II, Bliss independence model. The format is cell-based.
In the case of `CC(C)(C)C#Cc1cc(N(C(=O)[C@H]2CC[C@H](C)CC2)[C@H]2CC[C@H](O)CC2)c(C(=O)O)s1` [VX-222 (3003)], the “Synergy Volume” value stood at 32.35 μM^2%.

As to `CCc1cc(CC[C@]2(C3CCCC3)CC(O)=C(Cc3nc4nc(C)cc(C)n4n3)C(=O)O2)cc(CC)n1` [Filibuvir (3007)], the “Synergy Volume” value turned out to be 23.51 μM^2%.

For the compound `COc1ccc2c(O[C@@H]3C[C@H]4C(=O)N[C@]5(C(=O)NS(=O)(=O)C6CC6)C[C@H]5/C=C\CCCCN(C)C(=O)[C@@H]4C3)cc(-c3nc(C(C)C)cs3)nc2c1C` [TMC-435 (1013)], the “Synergy Volume” value was 97.17 μM^2%.

`NC(=O)c1ncn([C@@H]2O[C@H](CO)[C@@H](O)[C@H]2O)n1` [Ribavirin (5012), Ribavirin]: the “Synergy Volume” value is reported as 6.77 μM^2%.

`COC(=O)N[C@H](C(=O)N1CCC[C@H]1c1nc(-c2ccc(-c3ccc(-c4c[nH]c([C@@H]5CCCN5C(=O)[C@@H](NC(=O)OC)C(C)C)n4)cc3)cc2)c[nH]1)C(C)C` [BMS-790052 (4001)]: the “Synergy Volume” value was 38.01 μM^2%.

Consider `CNC(=O)c1c(-c2ccc(F)cc2)oc2cc(N(CCO)S(C)(=O)=O)c(C3CC3)cc12` [HCV-796 (3004)], for which the “Synergy Volume” value amounted to 81.72 μM^2%.

Consider `CCC[C@H](NC(=O)[C@@H]1[C@H]2CCC[C@H]2CN1C(=O)[C@@H](NC(=O)[C@@H](NC(=O)c1cnccn1)C1CCCCC1)C(C)(C)C)C(=O)C(=O)NC1CC1` [VX-950 (1001)], for which the “Synergy Volume” value was 32.28 μM^2%.

Still in this series, the particulars now being: combination with compound 18, class from synergy volume.
`CC(C)(C)C#Cc1cc(N(C(=O)[C@H]2CC[C@H](C)CC2)[C@H]2CC[C@H](O)CC2)c(C(=O)O)s1` [VX-222 (3003)]: the Determination result is recorded as “Synergistic (volumes in the 25-100 range indicate synergistic behavior)”.

Consider `CCc1cc(CC[C@]2(C3CCCC3)CC(O)=C(Cc3nc4nc(C)cc(C)n4n3)C(=O)O2)cc(CC)n1` [Filibuvir (3007)], for which the Determination result is recorded as “Additive (volumes in the −25-25 range indicate additive behavior)”.

Regarding `COc1ccc2c(O[C@@H]3C[C@H]4C(=O)N[C@]5(C(=O)NS(=O)(=O)C6CC6)C[C@H]5/C=C\CCCCN(C)C(=O)[C@@H]4C3)cc(-c3nc(C(C)C)cs3)nc2c1C` [TMC-435 (1013)], the Determination result is reported as “Synergistic (volumes in the 25-100 range indicate synergistic behavior)”.

On to `NC(=O)c1ncn([C@@H]2O[C@H](CO)[C@@H](O)[C@H]2O)n1` [Ribavirin (5012), Ribavirin], for which the Determination result is listed as “Additive (volumes in the −25-25 range indicate additive behavior)”.

Consider `COC(=O)N[C@H](C(=O)N1CCC[C@H]1c1nc(-c2ccc(-c3ccc(-c4c[nH]c([C@@H]5CCCN5C(=O)[C@@H](NC(=O)OC)C(C)C)n4)cc3)cc2)c[nH]1)C(C)C` [BMS-790052 (4001)], for which the Determination entry was “Synergistic (volumes in the 25-100 range indicate synergistic behavior)”.

Consider `CNC(=O)c1c(-c2ccc(F)cc2)oc2cc(N(CCO)S(C)(=O)=O)c(C3CC3)cc12` [HCV-796 (3004)], for which the Determination entry is “Synergistic (volumes in the 25-100 range indicate synergistic behavior)”.

On to `CCC[C@H](NC(=O)[C@@H]1[C@H]2CCC[C@H]2CN1C(=O)[C@@H](NC(=O)[C@@H](NC(=O)c1cnccn1)C1CCCCC1)C(C)(C)C)C(=O)C(=O)NC1CC1` [VX-950 (1001)], for which the Determination result is given as “Synergistic (volumes in the 25-100 range indicate synergistic behavior)”.

By EC50 is commonly meant the concentration at which the effect is half-maximal.
